From US9956232B2, “Dialkyl-phosphinoyl-alkane (Dapa) compounds and compositions for treatment of lower gastrointestinal tract disorders” (priority 2016, dated 2018)
“And” between values parts separate entries of the source, which are not always exact repeats. Equal entries are not always repeated.

Assays:
[1] = test system: heat-induced edema in the anesthetized rat paw; assay: Heat-induced edema in the anesthetized rat paw; assay type: in vivo; details: 20 mg/mL, 0.3 mL per paw, 30 min before 58° C. water 1 min; relative to contralateral paw
Source text: Inflammation is defined as the reaction of vascularized living tissue to local injury [Cotran, R S. 1989. Inflammation and repair. In Robbins: Pathologic Basis of Disease, ed. S. L. Robbins, R. S. Cotran, V. Kumar, 2:39-86. Philadelphia: Saunders. 4th ed.]. The characteristic signs of inflammation are redness, swelling, heat, and pain (and loss of function). The anti-inflammatory properties of the DAPA compounds were studied in a model of heat-induced vascular leakage [Wei et al. Method of inhibiting inflammatory response. U.S. Pat. No. 4,801,612; Wei et al., Anti-inflammatory peptide agonists. Annual Review Pharmacol Toxicol. 33:9-108, 1993]. When the paws of pentobarbital-anesthetized rats (200 to 300 g body weight) are immersed in 58° C. water for 1 min, the normal paw volume of about 1.8 mL was increased by ˜88% within 30 min, the swelling being due to an increase in water content of the paw.
Test compounds were dissolved in 20% water-80% R-1,2-propanediol at 20 mg/mL. The solutions were applied to the paw skin of pentobarbital-anesthetized rats (200 to 300 g body weight) at 0.3 mL per paw, using a syringe attached to a blunt 21 gauge needle covered at its tip with a piece of polyethylene 60 tubing. After distributing the solution over the paw, the paw was tightly enclosed in a plastic finger cut from a disposable glove. The contralateral paw [control] received only the vehicle. Thirty min after application, both paws were immersed in 58° C. water for 1 min. Thirty min after immersion, both paws were cut at ankle joint with scissors and weighed.
This degree of inhibition is significant for tissue protection as the injury stimulus is of supra-maximal intensity. The DAPA-2-5 effect was apparent to the untrained observer.

[2] = test system: pentobarbital-anesthetized male rats; assay: Shaking frequency (wet-dog shaking) of anesthetized rats after intravenous, perioral or topical delivery; assay type: in vivo; details: anesthetized rat
Description: In experiments conducted here, test compounds were evaluated for “wet-dog shaking” as a model of cooling sensation. Using a standardized procedure, test compounds were compared in their ability to stimulate the shaking response by intravenous injection into a cannulated femoral vein, by perioral administration, and by topical delivery to the abdominal skin.
Each rat was given two injections with a 30 min interval. […] Shaking frequency was counted for 15 min after injection. Shaking was observed immediately after i.v. injection and at least 78% of the total shakes occurred in the first 5 min after injection. The response in the second trial was at least as robust in the first trial, showing the lack of desensitization.
Test compounds were dissolved in saline and administered by oral gavage to pentobarbital-anesthetized male albino rats at 20 mg/kg at a volume of 0.1 mL/100 g body weight [N=3 to 4 rats per compound]. Shaking was counted over a 40 min period and recorded at 10-min intervals.
For topical application of DAPA, the abdominal skin of the anesthetized rat was shaved and 20 μL of the pure DAPA was applied with a micropipette onto a ˜1 cm diameter circle of skin, enclosed with a ring of cream [Baby cream “Nevskaya kosmetika Detskyi” Nevskaya Kosmetika Inc., Saint-Petersburg 192029], as shown in FIG. 5D. The number of shakes was counted for 1 hr after application.

[3] = target: TRPM8 (Homo sapiens, UniProt Q7Z2W7); assay: TRPM8 receptor agonist assay (Fluo-8 calcium, FLIPR); assay type: cell-based; set-up: host or cells: CHO cells, stably transfected
Description: Compounds were tested on (CHO) cells stably transfected with human TRPM8 cDNAs using a Fluo-8 calcium kit and a Fluorescence Imaging Plate Reader ([…]™) instrument. […] Solutions were prepared by diluting stock solutions in a HEPES-buffered physiological saline (HBPS) solution. Test compound and control formulations were loaded in polypropylene or glass-lined 384-well plates, and placed into the FLIPR instrument (Molecular Devices Corporation, Union City, Calif., USA). Each was tested at 8 concentrations with n=4 replicates per determination. […] For […]™ assay, cells were plated in 384-well black wall, flat clear-bottom microtiter plates (Type: BD Biocoat Poly-D-Lysine Multiwell Cell Culture Plate) at approximately 30,000 cells per well. Cells were incubated at 37° C. overnight to reach a near confluent monolayer appropriate for use in a fluorescence assay. The test procedure was to remove the growth media and to add 40 μL of HBPS containing Fluo-8 for 30 minutes at 37° C. 10 μL of test compound, vehicle, or control solutions in HBPS were added to each well and read for 4 minutes. Concentration-response data were analysed via the FLIPR Control software that is supplied with the FLIPR System (MDS-AT) and fitted to a Hill equation.

Sequence of TRPM8 (Q7Z2W7 whole entry): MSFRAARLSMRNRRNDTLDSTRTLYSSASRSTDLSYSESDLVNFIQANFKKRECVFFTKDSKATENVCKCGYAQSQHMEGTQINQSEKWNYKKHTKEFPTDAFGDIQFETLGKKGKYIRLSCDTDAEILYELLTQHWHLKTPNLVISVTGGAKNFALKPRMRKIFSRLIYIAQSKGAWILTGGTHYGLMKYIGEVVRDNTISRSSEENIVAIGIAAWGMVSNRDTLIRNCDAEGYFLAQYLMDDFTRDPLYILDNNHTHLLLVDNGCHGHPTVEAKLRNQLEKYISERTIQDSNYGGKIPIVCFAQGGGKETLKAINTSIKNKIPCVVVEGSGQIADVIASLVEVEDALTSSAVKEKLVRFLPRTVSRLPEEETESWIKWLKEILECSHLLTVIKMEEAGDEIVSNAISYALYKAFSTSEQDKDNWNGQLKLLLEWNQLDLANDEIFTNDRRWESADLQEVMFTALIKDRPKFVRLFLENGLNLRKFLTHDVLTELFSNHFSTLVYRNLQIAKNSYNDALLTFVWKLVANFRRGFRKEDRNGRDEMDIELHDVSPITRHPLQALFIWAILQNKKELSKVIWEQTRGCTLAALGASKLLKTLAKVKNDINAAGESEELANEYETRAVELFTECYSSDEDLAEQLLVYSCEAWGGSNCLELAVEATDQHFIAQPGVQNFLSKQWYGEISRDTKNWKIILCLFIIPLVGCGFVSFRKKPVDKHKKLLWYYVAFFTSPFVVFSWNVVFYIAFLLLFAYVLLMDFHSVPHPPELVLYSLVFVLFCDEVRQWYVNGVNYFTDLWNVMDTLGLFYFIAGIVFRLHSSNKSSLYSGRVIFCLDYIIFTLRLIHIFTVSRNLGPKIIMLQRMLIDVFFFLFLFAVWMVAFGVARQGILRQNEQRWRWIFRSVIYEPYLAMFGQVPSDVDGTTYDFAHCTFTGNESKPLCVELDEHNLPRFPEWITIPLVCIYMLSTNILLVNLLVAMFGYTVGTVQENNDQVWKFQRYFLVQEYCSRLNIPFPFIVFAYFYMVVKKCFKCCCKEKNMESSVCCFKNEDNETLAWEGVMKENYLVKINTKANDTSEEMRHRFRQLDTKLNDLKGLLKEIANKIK

CCCCCP(=O)(C(C)CC)C(C)CC (stereo not drawn) [DAPA-2-5, 1-Di(sec-butyl) phosphinoyl-pentane]
Inhibition of Heat Edema (±S.E.M.) [1]: 12.9% and 12.9 ± 2.5 %
Shaking frequency, Intravenous ([2]; 2 mg/kg i.v., 2nd trial, counted for 15 min): 20 ± 2 shakes
Shaking frequency, Perioral ([2]; 20 mg/kg by oral gavage, counted for 40 min): 4 shakes and 4 ± 1 shakes
Shaking frequency, Topical ([2]; 20 μL pure compound on shaved abdominal skin, counted for 1 hr): 0 shakes
×Menthol ([3]; TRPM8 relative potency as repeated in Table 4): 2.2
Relative Potency ([3]; relative to menthol = 1.0 (Table 2)): 2.2
